In ChEMBL document CHEMBL3046897, “Synthesis of 3-{4-[4-dimethylamino-6-(4-methyl-2-oxo-2H-chromen-7-yloxy)-[1,3,5]triazin-2-ylamino]-phenyl}-2-phenyl-5-(4-pyridin-2-yl-piperazin-1-ylmethyl)-thiazolidin-4-one and their biological evaluation” (2012):
Values after ≈ are worked out from the molar mass of the structure shown.

Experiments:
Assay type in all cases: functional
Shigella flexneri [1] = test: Antibacterial activity against Shigella flexneri after 24 hr by agar streak dilution method
Proteus vulgaris [2] = test: Antibacterial activity against Proteus vulgaris after 24 hr by agar streak dilution method
Salmonella typhi [3] = test: Antibacterial activity against Salmonella enterica subsp. enterica serovar Typhi after 24 hr by agar streak dilution method
Klebsiella pneumoniae [4] = test: Antibacterial activity against Klebsiella pneumoniae after 24 hr by agar streak dilution method
Candida albicans [5] = test: Antifungal activity against Candida albicans at 100 ug/disk after 48 hr by paper disk diffusion method; conditions: read-out: IZ
Aspergillus clavatus [6] = test: Antifungal activity against Aspergillus clavatus at 100 ug/disc after 48 hr by paper disk diffusion method; conditions: read-out: IZ
Aspergillus fumigatus [7] = test: Antifungal activity against Aspergillus fumigatus at 100 ug/disc after 48 hr by paper disk diffusion method; conditions: read-out: IZ
Aspergillus niger [8] = test: Antifungal activity against Aspergillus niger at 100 ug/disk after 48 hr by paper disk diffusion method; conditions: read-out: IZ
Candida albicans [9] = test: Antifungal activity against Candida albicans after 48 hr by agar streak dilution method
Aspergillus clavatus [10] = test: Antifungal activity against Aspergillus clavatus after 48 hr by agar streak dilution method
Aspergillus niger [11] = test: Antifungal activity against Aspergillus niger after 48 hr by agar streak dilution method
Pseudomonas aeruginosa [12] = test: Antibacterial activity against Pseudomonas aeruginosa after 24 hr by agar streak dilution method
Escherichia coli [13] = test: Antibacterial activity against Escherichia coli after 24 hr by agar streak dilution method
Shigella flexneri [14] = test: Antibacterial activity against Shigella flexneri at 100 ug/disc after 24 hr by paper disk diffusion method; conditions: read-out: IZ
Proteus vulgaris [15] = test: Antibacterial activity against Proteus vulgaris at 100 ug/disk after 24 hr by paper disk diffusion method; conditions: read-out: IZ
Salmonella typhi [16] = test: Antibacterial activity against Salmonella enterica subsp. enterica serovar Typhi at 100 ug/disk after 24 hr by paper disk diffusion method; conditions: read-out: IZ
Klebsiella pneumoniae [17] = test: Antibacterial activity against Klebsiella pneumoniae at 100 ug/disk after 24 hr by paper disk diffusion method; conditions: read-out: IZ
Pseudomonas aeruginosa [18] = test: Antibacterial activity against Pseudomonas aeruginosa at 100 ug/disk after 24 hr by paper disk diffusion method; conditions: read-out: IZ
Escherichia coli [19] = test: Antibacterial activity against Escherichia coli at 100 ug/disk after 24 hr by paper disk diffusion method; conditions: read-out: IZ
Bacillus subtilis [20] = test: Antibacterial activity against Bacillus subtilis after 24 hr by agar streak dilution method
Staphylococcus aureus [21] = test: Antibacterial activity against Staphylococcus aureus after 24 hr by agar streak dilution method
Bacillus subtilis [22] = test: Antibacterial activity against Bacillus subtilis at 100 ug/disk after 24 hr by paper disk diffusion method; conditions: read-out: IZ
Staphylococcus aureus [23] = test: Antibacterial activity against Staphylococcus aureus at 100 ug/disc after 24 hr by paper disk diffusion method; conditions: read-out: IZ
Aspergillus fumigatus [24] = test: Antifungal activity against Aspergillus fumigatus after 48 hr by agar streak dilution method

| SMILES | MIC (Shigella flexneri [1]) [µg/mL] | MIC (Proteus vulgaris [2]) [µg/mL] | MIC (Salmonella typhi [3]) [µg/mL] | MIC (Klebsiella pneumoniae [4]) [µg/mL] | zone of inhibition at 100 µg/disc (Candida albicans [5]) [mm] | zone of inhibition at 100 µg/disc (Aspergillus clavatus [6]) [mm] | zone of inhibition at 100 µg/disc (Aspergillus fumigatus [7]) [mm] | zone of inhibition at 100 µg/disc (Aspergillus niger [8]) [mm] | MIC (Candida albicans [9]) [µg/mL] | MIC (Aspergillus clavatus [10]) [µg/mL] | MIC (Aspergillus niger [11]) [µg/mL] | MIC (Pseudomonas aeruginosa [12]) [µg/mL] | MIC (Escherichia coli [13]) [µg/mL] | zone of inhibition at 100 µg/disc (Shigella flexneri [14]) [mm] | zone of inhibition at 100 µg/disc (Proteus vulgaris [15]) [mm] | zone of inhibition at 100 µg/disc (Salmonella typhi [16]) [mm] | zone of inhibition at 100 µg/disc (Klebsiella pneumoniae [17]) [mm] | zone of inhibition at 100 µg/disc (Pseudomonas aeruginosa [18]) [mm] | zone of inhibition at 100 µg/disc (Escherichia coli [19]) [mm] | MIC (Bacillus subtilis [20]) [µg/mL] | other results |
| --- | --- | --- | --- | --- | --- | --- | --- | --- | --- | --- | --- | --- | --- | --- | --- | --- | --- | --- | --- | --- | --- |
| COc1ccc(C2SC(CN3CCN(c4ccccn4)CC3)C(=O)N2c2ccc(Nc3nc(Oc4ccc5c(C)cc(=O)oc5c4)nc(N(C)C)n3)cc2)cc1 (stereo not given) | 100 (≈ 130 µM) | 50 (≈ 64.8 µM) | 25 (≈ 32.4 µM) | 50 (≈ 64.8 µM) | 23 | 19 | 20 | 22 | 25 (≈ 32.4 µM) | 50 (≈ 64.8 µM) | 25 (≈ 32.4 µM) | 100 (≈ 130 µM) | 100 (≈ 130 µM) | 17 | 20 | 22 | 19 | 18 | 16 | 25 (≈ 32.4 µM) | MIC (Staphylococcus aureus [21]): 25 µg/mL (≈ 32.4 µM); zone of inhibition at 100 µg/disc (Bacillus subtilis [22]): 19 mm; zone of inhibition at 100 µg/disc (Staphylococcus aureus [23]): 21 mm; MIC (Aspergillus fumigatus [24]): 25 µg/mL (≈ 32.4 µM) |
| Cc1ccc(C2SC(CN3CCN(c4ccccn4)CC3)C(=O)N2c2ccc(Nc3nc(Oc4ccc5c(C)cc(=O)oc5c4)nc(N(C)C)n3)cc2)cc1 (stereo not given) | 25 (≈ 33.1 µM) | 50 (≈ 66.1 µM) | 25 (≈ 33.1 µM) | 50 (≈ 66.1 µM) | 24 | 22 | 20 | 23 | 12.5 (≈ 16.5 µM) | 25 (≈ 33.1 µM) | 12.5 (≈ 16.5 µM) | 50 (≈ 66.1 µM) | 50 (≈ 66.1 µM) | 22 | 18 | 21 | 19 | 22 | 18 | 12.5 (≈ 16.5 µM) | MIC (Staphylococcus aureus [21]): 25 µg/mL (≈ 33.1 µM); zone of inhibition at 100 µg/disc (Bacillus subtilis [22]): 22 mm; zone of inhibition at 100 µg/disc (Staphylococcus aureus [23]): 20 mm; MIC (Aspergillus fumigatus [24]): 25 µg/mL (≈ 33.1 µM) |
| COc1ccc(/C=N/c2ccc(Nc3nc(Oc4ccc5c(C)cc(=O)oc5c4)nc(N(C)C)n3)cc2)cc1 | 100 (≈ 191 µM) | 50 (≈ 95.7 µM) | 50 (≈ 95.7 µM) | 100 (≈ 191 µM) | 17 | 11 | 13 | 16 | 50 (≈ 95.7 µM) | 100 (≈ 191 µM) | 50 (≈ 95.7 µM) | 100 (≈ 191 µM) | 100 (≈ 191 µM) | 10 | 16 | 18 | 14 | 12 | 10 | 100 (≈ 191 µM) | MIC (Staphylococcus aureus [21]): 100 µg/mL (≈ 191 µM); zone of inhibition at 100 µg/disc (Bacillus subtilis [22]): 13 mm; zone of inhibition at 100 µg/disc (Staphylococcus aureus [23]): 15 mm; MIC (Aspergillus fumigatus [24]): 100 µg/mL (≈ 191 µM) |
| Cc1cc(=O)oc2cc(Oc3nc(Nc4ccc(/N=C/c5ccc(F)cc5)cc4)nc(N(C)C)n3)ccc12 | 100 (≈ 196 µM) | 50 (≈ 97.9 µM) | 50 (≈ 97.9 µM) | 100 (≈ 196 µM) | 21 | 19 | 14 | 20 | 25 (≈ 49 µM) | 50 (≈ 97.9 µM) | 50 (≈ 97.9 µM) | 50 (≈ 97.9 µM) | 50 (≈ 97.9 µM) | 14 | 17 | 15 | < 10 | 20 | 16 | 50 (≈ 97.9 µM) | MIC (Staphylococcus aureus [21]): 25 µg/mL (≈ 49 µM); zone of inhibition at 100 µg/disc (Bacillus subtilis [22]): 18 mm; zone of inhibition at 100 µg/disc (Staphylococcus aureus [23]): 20 mm; MIC (Aspergillus fumigatus [24]): 100 µg/mL (≈ 196 µM) |
| Cc1cc(=O)oc2cc(Oc3nc(Nc4ccc(N5C(=O)CSC5c5ccc(Cl)cc5)cc4)nc(N(C)C)n3)ccc12 (stereo not given) | 12.5 (≈ 20.8 µM) | 25 (≈ 41.6 µM) | 25 (≈ 41.6 µM) | 50 (≈ 83.2 µM) | 22 | 21 | 18 | 15 | 25 (≈ 41.6 µM) | 25 (≈ 41.6 µM) | 100 (≈ 166 µM) | 100 (≈ 166 µM) | 50 (≈ 83.2 µM) | 24 | 20 | 21 | 18 | 15 | 20 | 100 (≈ 166 µM) | MIC (Staphylococcus aureus [21]): 50 µg/mL (≈ 83.2 µM); zone of inhibition at 100 µg/disc (Bacillus subtilis [22]): 16 mm; zone of inhibition at 100 µg/disc (Staphylococcus aureus [23]): 18 mm; MIC (Aspergillus fumigatus [24]): 50 µg/mL (≈ 83.2 µM) |
| Cc1cc(=O)oc2cc(Oc3nc(Nc4ccc(N5C(=O)CSC5c5ccc(Cl)cc5Cl)cc4)nc(N(C)C)n3)ccc12 (stereo not given) | 50 (≈ 78.7 µM) | 50 (≈ 78.7 µM) | 100 (≈ 157 µM) | 50 (≈ 78.7 µM) | 16 | 19 | 17 | 14 | 100 (≈ 157 µM) | 50 (≈ 78.7 µM) | 100 (≈ 157 µM) | 50 (≈ 78.7 µM) | 50 (≈ 78.7 µM) | 17 | 18 | 16 | 19 | 16 | 17 | 50 (≈ 78.7 µM) | MIC (Staphylococcus aureus [21]): 50 µg/mL (≈ 78.7 µM); zone of inhibition at 100 µg/disc (Bacillus subtilis [22]): 19 mm; zone of inhibition at 100 µg/disc (Staphylococcus aureus [23]): 17 mm; MIC (Aspergillus fumigatus [24]): 50 µg/mL (≈ 78.7 µM) |
| Cc1ccc(/C=N/c2ccc(Nc3nc(Oc4ccc5c(C)cc(=O)oc5c4)nc(N(C)C)n3)cc2)cc1 | 50 (≈ 98.7 µM) | 100 (≈ 197 µM) | 50 (≈ 98.7 µM) | 100 (≈ 197 µM) | 17 | 16 | 15 | 17 | 50 (≈ 98.7 µM) | 100 (≈ 197 µM) | 50 (≈ 98.7 µM) | 50 (≈ 98.7 µM) | 100 (≈ 197 µM) | 18 | 11 | 17 | 10 | 18 | < 10 | 50 (≈ 98.7 µM) | MIC (Staphylococcus aureus [21]): 100 µg/mL (≈ 197 µM); zone of inhibition at 100 µg/disc (Bacillus subtilis [22]): 17 mm; zone of inhibition at 100 µg/disc (Staphylococcus aureus [23]): 16 mm; MIC (Aspergillus fumigatus [24]): 100 µg/mL (≈ 197 µM) |
| Cc1cc(=O)oc2cc(Oc3nc(Nc4ccc(N5C(=O)CSC5c5ccc(O)cc5O)cc4)nc(N(C)C)n3)ccc12 (stereo not given) | 25 (≈ 41.8 µM) | 50 (≈ 83.5 µM) | 12.5 (≈ 20.9 µM) | 25 (≈ 41.8 µM) | 22 | 19 | 21 | 18 | 12.5 (≈ 20.9 µM) | 50 (≈ 83.5 µM) | 50 (≈ 83.5 µM) | 50 (≈ 83.5 µM) | 25 (≈ 41.8 µM) | 23 | 19 | 24 | 22 | 18 | 20 | 25 (≈ 41.8 µM) | MIC (Staphylococcus aureus [21]): 12.5 µg/mL (≈ 20.9 µM); zone of inhibition at 100 µg/disc (Bacillus subtilis [22]): 20 mm; zone of inhibition at 100 µg/disc (Staphylococcus aureus [23]): 22 mm; MIC (Aspergillus fumigatus [24]): 25 µg/mL (≈ 41.8 µM) |
| COc1ccc(C2SC(CN3CCN(c4ccccn4)CC3)C(=O)N2c2ccc(Nc3nc(Oc4ccc5c(C)cc(=O)oc5c4)nc(N(C)C)n3)cc2)cc1OC (stereo not given) | 50 (≈ 62.3 µM) | 100 (≈ 125 µM) | 50 (≈ 62.3 µM) | 100 (≈ 125 µM) | < 10 | 17 | 13 | 19 | 100 (≈ 125 µM) | 50 (≈ 62.3 µM) | 50 (≈ 62.3 µM) | 100 (≈ 125 µM) | 100 (≈ 125 µM) | 19 | 15 | 17 | 11 | 15 | 13 | 50 (≈ 62.3 µM) | MIC (Staphylococcus aureus [21]): 25 µg/mL (≈ 31.2 µM); zone of inhibition at 100 µg/disc (Bacillus subtilis [22]): 17 mm; zone of inhibition at 100 µg/disc (Staphylococcus aureus [23]): 20 mm; MIC (Aspergillus fumigatus [24]): 100 µg/mL (≈ 125 µM) |
| Cc1cc(=O)oc2cc(Oc3nc(Nc4ccc(/N=C/c5ccc(Cl)cc5)cc4)nc(N(C)C)n3)ccc12 | 25 (≈ 47.4 µM) | 50 (≈ 94.9 µM) | 25 (≈ 47.4 µM) | 100 (≈ 190 µM) | 18 | 18 | 16 | 12 | 50 (≈ 94.9 µM) | 50 (≈ 94.9 µM) | 100 (≈ 190 µM) | 100 (≈ 190 µM) | 100 (≈ 190 µM) | 21 | 17 | 19 | 15 | 11 | 16 | 100 (≈ 190 µM) | MIC (Staphylococcus aureus [21]): 50 µg/mL (≈ 94.9 µM); zone of inhibition at 100 µg/disc (Bacillus subtilis [22]): 14 mm; zone of inhibition at 100 µg/disc (Staphylococcus aureus [23]): 17 mm; MIC (Aspergillus fumigatus [24]): 50 µg/mL (≈ 94.9 µM) |
